Laboratory results from patent publication US20080153818A1, “METHODS FOR PREVENTING INFLAMMATION DURING SURGERY” (priority 2006, published 2008).

Tests used:
[1] = system: preretinal neovascularization (NV) in the rat model of oxygen-induced retinopathy (OIR); assay: Rat oxygen-induced retinopathy (OIR) model, single intravitreal injection; type: in vivo, Sprague-Dawley rats
Description: METHODS. Pregnant Sprague-Dawley rats were received at 14 days gestation and subsequently gave birth on Day 22±1 of gestation. Immediately following parturition, pups were pooled and randomized into separate litters (n=17 pups/litter), placed into separate shoebox cages inside oxygen delivery chamber, and subjected to an oxygen-exposure profile from Day 0-14 postpartum. Litters were then placed into room air from Day 14/0 through Day 14/6 (days 14-20 postpartum). Additionally on Day 14/0, each pup was randomly assigned as an oxygen-exposed control or into various treatment groups. For those randomized into an injection treatment group: one eye received a 5 μl intravitreal injection of 0.1%, 0.3%, 0.6%, or 1% RTKi and the contralateral eye received a 5 μl intravitreal injection of vehicle. At Day 14/6 (20 days postpartum), all animals in both studies were euthanized.
Immediately following euthanasia, retinas from all rat pups were harvested, fixed in 10% neutral buffered formalin for 24 hours, subjected to ADPase staining, and fixed onto slides as whole mounts. Digital images were acquired from each retinal flat mount that was adequately prepared. Computerized image analysis was used to obtain a NV clockhour score from each readable sample. Each clockhour out of 12 total per retina was assessed for the presence or absence of preretinal NV. […]

[2] = system: preretinal neovascularization (NV) in the rat OIR model; assay: Rat OIR model, oral gavage; type: in vivo, Sprague-Dawley rats
Method: Immediately following euthanasia, retinas from all rat pups were harvested, fixed in 10% neutral buffered formalin for 24 hours, subjected to ADPase staining, and fixed onto slides as whole mounts. Digital images were acquired from each retinal flat mount that was adequately prepared. Computerized image analysis was used to obtain a NV clockhour score from each readable sample. Each clockhour out of 12 total per retina was assessed for the presence or absence of preretinal NV. Statistical comparisons using median scores for NV clockhours from each treatment group were utilized in nonparametric analyses. Each noninjected pup represented one NV score by taking the average value of both eyes and was used in comparisons against each dosage group. Because the pups were randomly assigned and no difference was observed between oxygen-exposed control pups from all litters, the NV scores were combined for all treatment groups. P≦0.05 was considered statistically significant.
METHODS. Pregnant Sprague-Dawley rats were received at 14 days gestation and subsequently gave birth on Day 22±1 of gestation. Immediately following parturition, pups were pooled and randomized into separate litters (n=17 pups/litter), placed into separate shoebox cages inside oxygen delivery chamber, and subjected to an oxygen-exposure profile from Day 0 to Day 14 postpartum. Litters were then placed into room air from Day 14/0 through Day 14/6 (days 14-20 postpartum). Additionally on Day 14/0, each pup was randomly assigned as oxygen-exposed controls, vehicle treated, or drug-treated at 1.5, 5, 10 mg/kg, p.o., BID. At Day 14/6 (20 days postpartum), all animals in both studies were euthanized and retina whole mounts were prepared as described in Example 1 above.

[3] = system: laser-induced choroidal neovascularization (CNV); assay: Mouse laser-induced CNV, prevention, intravitreal injection; type: in vivo, C57BL/6J mice
Method: (§1) METHODS. CNV was generated by laser-induced rupture of Bruch's membrane. Briefly, 4 to 5 week old male C57BL/6J mice were anesthetized using intraperitoneal administration of ketamine hydrochloride (100 mg/kg) and xylazine (5 mg/kg) and the pupils of both eyes dilated with topical ocular instillation of 1% tropicamide and 2.5% Mydfin®. One drop of topical cellulose (Gonioscopic®) was used to lubricate the cornea. A hand-held cover slip was applied to the cornea and used as a contact lens to aid visualization of the fundus. Three to four retinal burns were placed in randomly assigned eye (right or left eye for each mouse) using the Alcon 532 nm EyeLite laser with a slit lamp delivery system. The laser burns were used to generate a rupture in Bruch's membrane, which was indicated ophthalmoscopically by the formation of a bubble under the retina. Only mice with laser burns that produced three bubbles per eye were included in the study. Burns were typically placed at the 3, 6, 9 or 12 o'clock positions in the posterior pole of the retina, avoiding the branch retinal arteries and veins.
(§2) Each mouse was randomly assigned into one of the following treatment groups: noninjected controls, sham-injected controls, vehicle-injected mice, or one of three RTKi-injected groups. […]

[4] = system: existing laser-induced choroidal neovascularization (CNV); assay: Mouse laser-induced CNV, regression of existing CNV, intravitreal injection at day 7; type: in vivo; conditions: single intravitreal injection
Method: as §1, §2
METHODS. […] Choroidal flat mounts were analyzed as described above in Example 3.

[5] = system: laser-induced choroidal neovascularization (CNV); assay: Mouse laser-induced CNV, prevention paradigm, oral gavage; type: in vivo; conditions: for inhibition of CNV (in words): prevention paradigm, 14 days
[6] = system: existing laser-induced choroidal neovascularization (CNV); assay: Mouse laser-induced CNV, regression paradigm, oral gavage from day 7; type: in vivo; conditions: 3 mg/kg/day oral from day 7
[7] = system: diabetes-induced retinal vascular permeability (STZ rat model); assay: STZ diabetic rat retinal vascular permeability, oral gavage; type: in vivo
Method: METHODS. Diabetes was induced in male Long-Evans rats with 65 mg/kg streptozotocin (STZ) after an overnight fast. Upon confirmation of diabetes (blood glucose >250 mg/dl), treatment was initiated by oral gavage. Non-diabetic (NDM) and diabetic (DM) rats received oral gavage of either vehicle or RTK inhibitor at 1.5 or 5 mg/kg/d BID. After 2 weeks, jugular vein catheters were implanted 1 day prior to experimentation for the infusion of indicator dye. Retinal vascular permeability, RVP, was measured using Evan's blue albumin permeation (45 mg/kg) after a 2 hour circulation period.

[8] = NDM and DM groups, oral gavage, 2 weeks

Cc1ccc(F)c(NC(=O)Nc2ccc(-c3cccc4[nH]nc(N)c34)cc2)c1 [Compound 86, N-[4-[3-amino-1H-indazol-4-yl]phenyl]-N′-(2-fluoro-5-methylphenyl)urea]
efficacy against preretinal NV (in words) ([1]; 0.1% treated eyes, intravitreal): Efficacy was not observed
effect on preretinal neovascularization (in words, FIG. 1) ([1]; single intravitreal injection): inhibits
decrease in NV (in words) ([2]; 3 mg/kg/day p.o.): did not have a significant decrease
inhibition of preretinal NV (in words) ([2]; 20 mg/kg/day p.o.): complete inhibition
effect on preretinal neovascularization (in words, FIG. 2) ([2]; oral gavage): prevents
difference in CNV versus vehicle injected eyes (in words) ([3]; 0.3% RTKi, intravitreal): marginal statistical difference
effect on laser-induced CNV (in words, FIG. 3) ([3]; single intravitreal injection): inhibits
effect on existing laser-induced CNV (in words, FIG. 4) [4]: induces regression
effect on laser-induced CNV (in words, FIG. 6) ([5]; oral gavage): inhibits
inhibition of CNV (in words) ([5]; 3 mg/kg/day oral gavage): no significant inhibition
inhibition of CNV (in words) ([5]; 20 mg/kg/d oral gavage): complete inhibition
regression of existing CNV (in words) [6]: did not show a significant regression
RVP (in words) ([7]; NDM (non-diabetic) rats, 5 mg/kg/d oral gavage): unchanged
systemic or ERG side effects [7, 8]: no observed systemic or ERG side effects
tolerability of oral treatment [7, 8]: well tolerated
